Measurements taken from US5849736A, “Isoxazoline and isoxazole fibrinogen receptor antagonists” (The DuPont Merck Pharmaceutical Company, priority 1995, dated 1998).
Counter-ions that a name gives are not always drawn. Like-named read-outs stand apart in the source and are kept apart here.

System: platelet aggregation in human platelet rich plasma (PRP)
Experiment: Platelet Aggregation Assay (platelet rich plasma, with or without esterase pretreatment)
Type: cell-based
Method: Venous blood was obtained from the arm of a healthy human donor who was drug-free and aspirin-free for at least two weeks prior to blood collection. Blood was collected into 10 mL citrated Vacutainer tubes. The blood was centrifuged for 15 minutes at 150×g at room temperature, and platelet-rich plasma (PRP) was removed. The remaining blood was centrifuged for 15 minutes at 1500×g at room temperature, and platelet-poor plasma (PPP) was removed. Samples were assayed on a aggregometer (PAP-4 Platelet Aggregation Profiler), using PPP as the blank (100% transmittance). 200 μL of PRP was added to each micro test tube, and transmittance was set to 0%. 20 μL of various agonists (ADP, collagen, arachidonate, epinephrine, thrombin) were added to each tube, and the aggregation profiles were plotted (% transmittance versus time). The results are expressed as % inhibition of agonist-induced platelet aggregation. For the IC50 evaluation, the test compounds were added at various concentrations prior to the activation of the platelets.
Ester prodrugs were preincubated (10^-3 M F.C.) with 100 IU/mL Porcine liver esterase (Sigma Chemical Co., St. Louis, Mo., #E-3128) for 2 hours at 37° C. Aliquots are then diluted in 0.1M Tris, pH 7.4, to the desired concentrations. Aliquots of 20 μl of the esterase pretreated prodrugs are added to 200 μl of human platelet rich plasma. Samples were placed in platelet profiler (aggregometer) for 8 minutes at 37° C., followed by the addition of 100 μM Adenosine Diphosphate, (Sigma Chemical Co., St. Louis, Mo., #A-6521), to induce platelet aggregation. Platelet aggregation was allowed to proceed for 5 minutes. Percent inhibition is calculated using percent aggregation in the presence of the test compound divided by percent aggregation of control, times 100. This value is subtracted from 100, yielding percent inhibition. Calculation of IC50 is performed on a Texas Instruments TI59 with an IC50 program.
Table A below sets forth the antiplatelet activity of representative compounds of the present invention. The indicated compounds were tested for their ability to inhibit platelet aggregation (using platelet rich plasma (PRP)). The IC50 value (the concentration of antagonist which inhibits platelet aggregation by 50% relative to a control lacking the antagonist) is shown. In Table 5 the IC50 values are expressed as: +++=IC50 of <10 μM; ++=IC50 of 10-50 μM; +=IC50 of 50-100 μM (μM=micromolar).

[1] = Platelet, without esterase, read-out: Platelet Aggregation Assay IC50 (without esterase)
[2] = Platelet, without esterase, given as a bound, not a class symbol, read-out: Platelet Aggregation Assay IC50 (without esterase)
[3] = Platelet, preincubated with 100 IU/mL porcine liver esterase 2 hours at 37° C., 100 μM ADP, read-out: Platelet Aggregation Assay IC50 (with esterase)
[4] = preincubated with 100 IU/mL porcine liver esterase 2 hours at 37° C., 100 μM ADP, read-out: Platelet Aggregation Assay IC50 (with esterase)

SMILES	IC50 [3] [µM]	further results
O=C(O)CC1CC(c2ccc(OCCC3CCNCC3)cc2)=NO1 (racemic) [Example 1, 3-(4-[2-Piperidin-4-yl)ethoxy]phenyl]-(5R,S)-isoxazolin-5-ylacetic Acid, Trifluoroacetic Acid Salt]	–	IC50 [1]: < 10 µM
O=C(O)CCC1CC(c2ccc(OCC3CCNCC3)cc2)=NO1 (racemic) [Example 6, 3-(3-[4-(Piperidin-4-ylmethoxy)phenyl]-(5R,S)-isoxazolin-5-yl)propionic Acid, Trifluoroacetic Acid Salt]	–	IC50 [1]: < 10 µM
O=C(O)CC1CC(c2ccc(OCC3CCNCC3)cc2)=NO1 (racemic) [Example 7, 3-[4-(Piperidin-4-ylmethoxy)phenyl]-(5R,S)-isoxazolin-5-ylacetic Acid, Trifluoroacetic Acid Salt]	–	IC50 [2]: > 100 µM
O=C(O)CCC1CC(c2ccc(OCCC3CCNCC3)cc2)=NO1 (racemic) [Example 8, 3-[4-(2-Piperidin-4-yl)ethoxyphenyl]-(5R,S) -isoxazolin-5-ylpropionic Acid, Trifluoroacetic Acid Salt]	–	IC50 [1]: 50 to 100 µM
COC(=O)C1(CC(=O)O)CC(c2ccc(OCCC3CCNCC3)cc2)=NO1 (racemic) [Example 33, Trifluoroacetic Acid Salt]	–	IC50 [2]: > 100 µM
N=C(N)c1ccc(C2=NOC(CC(=O)NC(CC(=O)O)c3ccccc3)C2)cc1 (racemic) [Example 43, N-[3-(4-Amidinophenyl)isoxazolin-5(R,S)-ylacetyl]-(R,S)-3-amino-3-phenylpropanoic Acid]	–	IC50 [1]: < 10 µM
O=C(O)CCN1C(=O)CC2(CC(CCC3CCNCC3)=NO2)C1=O (racemic) [Example 189, 5(R,S)-(2-Piperidin-4-ylethyl-8-(2-carboxyethyl)-1-oxa-2,8-diazaspiro[4.4]non-2-ene-7,9-dione]	–	IC50 [2]: > 100 µM
COC(=O)CC(CSc1ccccc1)NC(=O)CC1CC(c2ccc(C(=N)N)cc2)=NO1 (racemic) [Example 350, Methyl 3(R,S)-N-(R,S)-{5-[3-(4-amidinophenyl)isoxazolin-5-ylacetyl]amino}-4-(phenylthio)butanoate hydrochloric acid salt]	< 10	–
COC(=O)CC(CNS(=O)(=O)c1ccccc1)NC(=O)CC1CC(c2ccc(C(=N)N)cc2)=NO1 (racemic) [Example 359, Methyl 3(R,S) -{5(R,S)-N-[3-(4-amidinophenyl)isoxazolin-5-ylacetyl]amino}-4-(phenylsulfonamido)butanoate . trifluoroacetic acid salt]	< 10	–
CCCCS(=O)(=O)NCC(CC(=O)OC)NC(=O)CC1CC(c2ccc(C(=N)N)cc2)=NO1 (racemic) [Example 362, Methyl 3(R,S)-{5(R,S)-N-[3-(4-amidinophenyl)isoxazolin-5-ylacetyl]amino}-4-(n-butylsulfonamido)butanoate . trifluoroacetic acid salt]	< 10	–
COC(=O)CC(CC(=O)OC)NC(=O)CC1CC(c2ccc(C(=N)N)cc2)=NO1 (racemic) [Example 365, Methyl {5(R,S)-N-[3-(4-amidinophenyl)isoxazolin-5-ylacetyl]amino}-4-(methoxycarbonyl)butanoate . trifluoroacetic acid salt]	< 10	–
COC(=O)CCC(CC(=O)OC)NC(=O)CC1CC(c2ccc(C(=N)N)cc2)=NO1 (racemic) [Example 368, trifluoroacetic acid salt]	< 10	–
N=C(N)c1ccc(C2=NOC(CC(=O)N3CCCCCC3CC(=O)O)C2)cc1 (racemic) [Example 377, 2-(R,S)-2-Carboxymethyl-1-{5-(R,S)-N-[3-(4-amidinophenyl)isoxazolin-5-ylacetyl]}azepine]	–	IC50 [1]: < 10 µM
COC(=O)CC1C(=O)NCCN1C(=O)CC1CC(c2ccc(C(=N)N)cc2)=NO1 (racemic) [Example 400, 3-(R,S)-(Methoxy-2-oxoethyl)-4-{5-(R,S)-N-[3-(4-amidinophenyl)isoxazolin-5-ylacetyl]}piperazin-2-one]	–	IC50 [1]: < 10 µM
O=C(N[C@H](C(=O)O)C1CC(c2ccc(OCCC3CCNCC3)cc2)=NO1)OCc1ccccc1 (single isomer, unassigned) [4 (isomer A)]	–	IC50 [1]: 10 to 50 µM
O=C(N[C@H](C(=O)O)C1CC(c2ccc(OCCC3CCNCC3)cc2)=NO1)OCc1ccccc1 (single isomer, unassigned) [4 (isomer B), Trifluoroacetic Acid Salt]	–	IC50 [1]: 10 to 50 µM
CCCCS(=O)(=O)NC(CC1CC(c2ccc(OCC3CCNCC3)cc2)=NO1)C(=O)O (single isomer, unassigned) [9 (isomer A)]	–	IC50 [1]: < 10 µM
CCCCS(=O)(=O)NC(CC1CC(c2ccc(OCC3CCNCC3)cc2)=NO1)C(=O)O (single isomer, unassigned) [9 (isomer B), 3-(3-[4-{(Piperidin-4-yl)methoxy}phenyl]isoxazolin-5-yl{[butanesulfonyl]amino}]propionic Acid, Trifluoroacetic Acid Salt (Less Polar Diastereomer)]	–	IC50 (without esterase, read-out: Platelet Aggregation Assay IC50 (without esterase)): < 10 µM

SMILES	IC50 [3] [µM]	further results
COC(=O)C[C@@H](Cc1ccccc1)NC(=O)CC1CC(c2ccc(C(=N)N)cc2)=NO1 (stereo partly drawn) [119A (3R)]	–	IC50 [4]: < 10 µM
COC(=O)C[C@H](Cc1ccccc1)NC(=O)CC1CC(c2ccc(C(=N)N)cc2)=NO1 (stereo partly drawn) [119B (3S)]	–	IC50 [4]: < 10 µM
COC(=O)C[C@@H](CCc1ccccc1)NC(=O)C[C@H]1CC(c2ccc(C(=N)N)cc2)=NO1 [120C (3R)]	–	IC50 [4]: < 10 µM
COC(=O)[C@H](CNC(=O)CC1CC(c2ccc(C(=N)N)cc2)=NO1)NS(=O)(=O)Cc1ccccc1 (stereo partly drawn) [328 (2S)]	–	IC50 [4]: < 10 µM
COC(=O)CC(NC(=O)CC1CC(c2ccc(C(=N)N)cc2)=NO1)c1ccccc1 (stereo not drawn) [Example 89]	< 10	–
CCC(CC(=O)OC)NC(=O)CC1CC(c2ccc(C(=N)N)cc2)=NO1 (stereo not drawn) [Example 115]	< 10	–
COC(=O)C[C@@H](CCc1ccccc1)NC(=O)CC1CC(c2ccc(C(=N)N)cc2)=NO1 (stereo partly drawn) [Example 120a, Methyl 3(R)-{5(R,S)-N-[3-(4-amidinophenyl)isoxazolin-5-ylacetyl]amino}-3-phenethylpropanoate]	< 10	–
COC(=O)C[C@H](CCc1ccccc1)NC(=O)CC1CC(c2ccc(C(=N)N)cc2)=NO1 (stereo partly drawn) [Example 120b, Methyl 3(S)-{5(R,S)-N-[3-(4-amidinophenyl)isoxazolin-5-ylacetyl]amino}-3-phenethylpropanoate]	< 10	–
CCOC(=O)CC(CN(C)C)NC(=O)CC1CC(c2ccc(C(=N)N)cc2)=NO1 (stereo not drawn) [Example 166]	< 10	–
O=C(O)CCCN1C(=O)CC2(CC(CCC3CCNCC3)=NO2)C1=O (stereo not drawn) [Example 190]	–	IC50 [1]: 50 to 100 µM
N=C(N)c1ccc(C2=NOC(CC(=O)NC[C@H](N)C(=O)O)C2)cc1 (stereo partly drawn) [Example 275, N^3-[3-(4-amidinophenyl)isoxazolin-5(R,S)-ylacetyl]-L-2,3-diaminopropionic acid TFA salt]	< 10	–
N=C(N)c1ccc(C2=NOC(CC(=O)NC[C@H](NC(=O)OCc3ccccc3)C(=O)O)C2)cc1 (stereo partly drawn) [Example 276, N^2 -Cbz-N^3-[3-(4-amidinophenyl)isoxazolin-5(R, S) -ylacetyl]-L-2,3-diaminopropionic acid TFA salt]	< 10	–
CCCCOC(=O)N[C@@H](CNC(=O)CC1CC(c2ccc(C(=N)N)cc2)=NO1)C(=O)O (stereo partly drawn) [Example 278, N^2-n-butyloxycarbonyl-N^3-[3-(4-amidinophenyl)isoxazolin-5(R, S)-ylacetyl]-L-2,3-diaminopropionic acid TFA salt]	< 10	–
Cc1ccc(S(=O)(=O)NC(CNC(=O)CC2CC(c3ccc(C(=N)N)cc3)=NO2)C(=O)O)cc1 (stereo not drawn) [Example 300]	< 10	–
COC(=O)C(CNC(=O)CC1CC(c2ccc(C(=N)N)cc2)=NO1)NC(=O)OCc1ccccc1 (stereo not drawn) [Example 312]	< 10	–
CCCCOC(=O)N[C@@H](CNC(=O)C[C@@H]1CC(c2ccc(C(=N)N)cc2)=NO1)C(=O)OC [Example 314A, Methyl N^2-n-butyloxycarbonyl-N^3-[3-(4-amidinophenyl)isoxazolin-5(S)-ylacetyl]-(S)-2,3-diaminopropionate TFA salt]	< 10	–
CCCCOC(=O)N[C@@H](CNC(=O)C[C@H]1CC(c2ccc(C(=N)N)cc2)=NO1)C(=O)OC [Example 314B, Methyl-N^2-n-butyloxycarbonyl-N^3-[3-(4-amidinophenyl)isoxazolin-5(R)-ylacetyl]-(S)-2,3-diaminopropionate TFA salt]	< 10	–
COC(=O)C(CNC(=O)CC1CC(c2ccc(C(=N)N)cc2)=NO1)NS(C)(=O)=O (stereo not drawn) [Example 323]	< 10	–
